The values that follow come from BindingDB's records for doi:10.1016/j.bmcl.2010.06.050 (Universit&#224, 2010).

For assay [1], the target named is Monoglyceride lipase MGLL (Mus musculus) (UniProt O35678). Kind of assay: Inhibition of mouse brain MAGL.
Assay [2] has as its target T1, Fatty-acid amide hydrolase 1 (Mus musculus, UniProt O08914).
T1 sequence (O08914 whole entry): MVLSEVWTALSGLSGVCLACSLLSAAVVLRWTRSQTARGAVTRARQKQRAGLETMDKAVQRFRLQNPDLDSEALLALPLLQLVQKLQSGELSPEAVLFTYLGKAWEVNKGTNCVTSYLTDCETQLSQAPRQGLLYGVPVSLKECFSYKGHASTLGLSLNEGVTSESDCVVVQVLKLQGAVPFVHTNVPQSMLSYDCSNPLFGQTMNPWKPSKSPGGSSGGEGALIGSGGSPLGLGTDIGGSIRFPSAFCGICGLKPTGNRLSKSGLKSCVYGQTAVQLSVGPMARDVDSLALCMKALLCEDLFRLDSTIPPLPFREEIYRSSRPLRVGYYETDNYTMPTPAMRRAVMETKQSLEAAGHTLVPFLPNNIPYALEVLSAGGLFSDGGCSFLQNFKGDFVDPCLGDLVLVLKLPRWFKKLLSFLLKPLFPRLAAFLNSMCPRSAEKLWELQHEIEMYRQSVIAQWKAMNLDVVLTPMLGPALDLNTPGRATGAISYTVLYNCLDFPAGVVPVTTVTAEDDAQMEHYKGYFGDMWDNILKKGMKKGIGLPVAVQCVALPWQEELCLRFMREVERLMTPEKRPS
Kind of assay: Inhibition of mouse brain FAAH assessed as conversion of [3H-ethanolamine]AEA to [3H]ethanolamine by scintillation counting.

pIC50: −log10 of the molar value.

Broadly, the pIC50 is −log10 of the IC50, conventionally taken in molar units.

Monoglyceride lipase MGLL (Mus musculus), sequence (O35678 whole entry, looked up): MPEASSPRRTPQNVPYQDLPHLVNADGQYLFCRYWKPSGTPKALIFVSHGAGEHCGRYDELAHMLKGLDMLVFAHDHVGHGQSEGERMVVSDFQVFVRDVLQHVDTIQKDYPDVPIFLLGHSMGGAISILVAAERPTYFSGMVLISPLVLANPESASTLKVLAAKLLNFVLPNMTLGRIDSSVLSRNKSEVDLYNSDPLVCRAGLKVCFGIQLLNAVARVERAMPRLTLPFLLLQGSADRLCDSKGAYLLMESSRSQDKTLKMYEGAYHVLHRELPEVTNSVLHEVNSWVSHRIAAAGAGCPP

For `CC(=NOC(=O)Nc1ccccc1)c1cccc(-c2cccs2)c1` [1-(3-Thiophen-2-yl-phenyl)-ethanone, O-(phenylaminocarbonyl)oxime], in assay [1], the pIC50 was under 5.00.
As for `O=C(Nc1ccccc1)ON=C1CCC(c2ccccc2)CC1` (configuration not stated) [4-Phenyl-cyclohexanone, O-(phenylaminocarbonyl)oxime], the pIC50 in assay [2] was under 4.30.
